Entries after “also recorded” stand apart in the source; their conditions may differ.
How the values were obtained:
[1] = test system: NSCLC cell line (H2030); assay: Cell proliferation and drug sensitivity assay (MTT colorimetric assay, 96 hrs), H2030; format: cell-based
Procedure: Lung and ovarian cancer cell culture. The NSCLC cell lines (H23, H225, H322, H358, H441, H520, A549, H647, H838, H1650, H1651, H1666, H1734, H1793, H1838, H2030 and H2 126) were grown as recommended by the supplier (ATCC, Rockville, Mo.). The ovarian cancer cell lines (OCV AR-3, OVCAR-5, TOV-21G and TOV-1120) were grown as recommended by the supplier (ATCC, Rockville, Mo.). FUOV-1, a human ovarian carcinoma, was grown according to the supplier (DSMZ, Braunschweig, Germany). Ten additional cell lines (C13, OV2008, A2780-CP, A2780S, IGROV-1, T8, IMCC3, 1MCC5, SKOV3 and A200S) were provided by Dr. Patricia Kruk (University of South Florida, Fla.). These ten cell lines were grown in RPMI 1640, supplemented with 10% Fetal Bovine Serum, 1% Sodium pyruvate, and 1% non essential amino acids. Tissue culture media and Thiazolyl Blue Tetrazolium Bromide were purchased from Sigma Aldrich (St. Louis, Mo.). […]
Cell proliferation and Drug sensitivity assays. Optimal cell number and linear range of drug concentration were determined for each cell line and drug as described previously (Bild A, Yao G, Chang S T, et al: Oncogenic pathways signatures in human cancers as guide to targeted therapies. Nature 439(7074):353-357, 2006, Potti A, Dressman H K, Bild A, et al: Genomic signatures to guide the use of chemotherapeutics. Nature Medicine 12(11): 1294-1300, 2006). […]

[2] = test system: K-562; conditions: pemetrexed, cell line K-562; cited from earlier work
[3] = test system: MCF7; conditions: pemetrexed, cell line MCF7; cited from earlier work
[4] = test system: SNB-19; conditions: pemetrexed, cell line SNB-19; cited from earlier work
[5] = test system: HS578T; conditions: pemetrexed, cell line HS578T; cited from earlier work
[6] = test system: MDA-MB-231; conditions: pemetrexed, cell line MDA-MB-231; cited from earlier work
[7] = test system: MDA-MB-435; conditions: pemetrexed, cell line MDA-MB-435; cited from earlier work
[8] = test system: NCI-H226; conditions: pemetrexed, cell line NCI-H226; cited from earlier work
[9] = test system: 257p; conditions: pemetrexed, cell line 257P; cited from earlier work
[10] = test system: A375; conditions: pemetrexed, cell line A375; cited from earlier work
[11] = test system: C8161; conditions: pemetrexed, cell line C8161; cited from earlier work
[12] = test system: ES2; conditions: pemetrexed, cell line ES2; cited from earlier work
[13] = test system: ME43; conditions: pemetrexed, cell line me43; cited from earlier work
[14] = test system: SNU182; conditions: pemetrexed, cell line SNU182; cited from earlier work
[15] = test system: DV90; conditions: pemetrexed, cell line DV90; cited from earlier work
[16] = test system: OAW42; conditions: pemetrexed, cell line OAW42; cited from earlier work
[17] = test system: FUOV1; conditions: pemetrexed, cell line FUOV1; cited from earlier work

Nc1nc2[nH]cc(CCc3ccc(C(=O)N[C@@H](CCC(=O)O)C(=O)O)cc3)c2c(=O)[nH]1 [Pemetrexed, pemetrexed]
sensitivity to subsequent pemetrexed exposure ([1]; H2030 first treated for four days with a taxane (docetaxel or paclitaxel)): resistance to subsequent pemetrexed exposure was induced; also recorded: develops resistance | sensitivity to pemetrexed ([1]; H2030 first treated with pemetrexed): sensitive | Resistant (Res) or Sensitive (Sen) [2]: Res | Resistant (Res) or Sensitive (Sen) [3]: Res | Resistant (Res) or Sensitive (Sen) [4]: Sen | Resistant (Res) or Sensitive (Sen) [5]: Sen | Resistant (Res) or Sensitive (Sen) [6]: Sen | Resistant (Res) or Sensitive (Sen) [7]: Sen | Resistant (Res) or Sensitive (Sen) [8]: Sen | Resistant (Res) or Sensitive (Sen) [9]: Res | Resistant (Res) or Sensitive (Sen) [10]: Res | Resistant (Res) or Sensitive (Sen) [11]: Res | Resistant (Res) or Sensitive (Sen) [12]: Res | Resistant (Res) or Sensitive (Sen) [13]: Res | Resistant (Res) or Sensitive (Sen) [14]: Res | Resistant (Res) or Sensitive (Sen) [15]: Sen | Resistant (Res) or Sensitive (Sen) [16]: Sen | Resistant (Res) or Sensitive (Sen) [17]: Sen

From patent US20100273711A1, “INDIVIDUALIZED CANCER TREATMENTS” (priority 2007, published 2010)
